This is an account of results in patent US20110045076A1, “LINEAR ORDER RELEASE POLYMER” (priority 2008, published 2011).

Converted amounts (≈) assume the structure as drawn.

Data set [1] is described as follows: In vitro release of dapivirine from PU rings (SC and MM) in 25:75 i-prOH:water. Type of data set: physicochemical. As to conditions: for average release rate: rings, two weeks. As for the experimental part:
The release profile of dapivirine was measured from PU-SC rods for a month after which the release kinetics from rings was evaluated for two weeks to determine the correlation of drug release rate from rods to that from rings. This may enable use of rods in place of rings for release kinetics evaluation thereby minimizing the scale of materials such as ring materials, quantity of drugs and volume of sink solutions required for release studies in case of monolithic IVRs. About 2 cm length segments were cut from the solid cross-sectional dapivirine loaded PU SC rods. The dimensions (length and diameter) and weight of each segment were recorded. The segments were incubated with 5 mL 25:75 v/v i-prOH:water as the sink condition in 20 mL septa covered vials at 37° C. in a water bath shaker set at 64±2 rpm. The sink was replaced with fresh co-solvent every 24±0.5 h for 30 days. HPLC analyses were performed every 2 to 5 days and the cumulative release was calculated by integrating the area under the curve using Kaleidagraph software (Synergy Software, Reading, Pa.). The release study for each loading was performed on triplicate samples. At the end of 30 days, the segments were wiped dry and the masses and dimensions of the segments were recorded. Similarly, dapivirine release kinetics were measured from rings (20 mg/g SC, 2.5 mg/g SC, 20 mg/g MM and 2.5 mg/g MM) incubated with 50 mL of 25:75 v/v i-prOH:water mixture as sink condition in 125 mL Erlenmeyer flasks with rubber septa […].
At the end of each release study, the swelling ratio was calculated by using the following equation
[formula] • where • Q=swelling ratio • Mi=mass of ring or rod segments before the release study • Mf=mass ring or rod segments after the release study

A short description of data set [2]: Solubility study of dapivirine. Type of data set: physicochemical. Particulars: for solubility: 37 °C, aqueous with cosolvent or surfactant or cyclodextrin, thermodynamic from solid; for Time to reach saturation: 37° C. As for the experimental part: HPLC quantification of dapivirine was conducted as follows. The HPLC system (Agilent 1050) consisted of a solvent module, quaternary pump module and a variable wavelength UV detector. For analysis of release and solubility study samples, an alkyl amide column (Supelcosil™ ABZ+Plus 3 μm, 3.3 cm×4.6 mm ID, Supelco, Bellefonte, Pa.) was used with a gradient of 50:50 acetonitrile and water to 100% acetonitrile (both containing 0.1% v/v trifluoroacetic acid, TFA) in 4 minutes at a flow rate of 1 mL/min. The retention time of dapivirine was 1.1 min. A linear calibration curve of dapivirine was obtained in the range of 1-100 ng/injection (r^2>0.99) at the detection wavelength of 286 nm. The quantification limit of HPLC for dapivirine was 0.65 ng/injection (corresponds to 2 μl of a 1 μM solution) with a signal to noise ratio greater than 10. A longer method was developed for the stability study; a C-18 column (Hypersil BDS-C18, 10 cm×4.0 mm ID, […], Thermo Electron Corporation, Waltham, Mass.) was used with acetonitrile (A) and water (B) both containing 0.1% v/v TFA as eluent at a flow rate of 1 mL/min. A gradient of 30:70 A:B to 70:30 A:B was applied in 7 minutes with retention time of dapivirine at 5.7 minutes. The HPLC method was modified for LC/MS analysis: the flow rate was reduced to 0.5 mL/min; a gradient of 30:70 A:B to 70:30 A:B in 14 minutes; the TFA concentration in the eluents was 0.05% v/v and the retention time for dapivirine was 10.5 minutes.
Solubility studies of dapivirine were conducted to determine the appropriate sink conditions for the in vitro release studies. Dapivirine is a hydrophobic molecule; therefore a co-solvent system that can provide sink conditions (solubility greater than 3 times the maximum concentration achieved in the release medium) during dapivirine release study was needed. Since a co-solvent system consisting of 50:50 v/v i-prOH:water has been utilized previously for long-term release studies of dapivirine from silicone rings^11,18, the solubility of dapivirine was determined in 50:50 and 25:75 v/v i-prOH:water solutions. Additionally, solubility of dapivirine in liposome dispersions was evaluated in an attempt to utilize them as biorelevant sink conditions.^14,21 The liposome dispersions of 10 mg/mL in 25 mM pH 4.2 acetate buffer (osmolarity adjusted to 310 mOsm/kg with NaCl) and 25 mM pH 7.6 phosphate buffer (osmolarity adjusted to 310 mOsm/kg with NaCl) were utilized. (See in vitro release studies in Example 4 for preparation of liposome dispersions.) Dapivirine (10 mg) was dispersed in test solutions (2 mL) and shaken at 37° C. at 200 rpm. Aliquots of 200 μL were withdrawn at 24 h, 48 h and 72 h. At each time point, the aliquots were centrifuged immediately for 2 minutes at 16000 g, 100 μL of the supernatant was diluted 1:10 using 100% isopropanol and quantified by HPLC. The solubility was determined by a calibration curve generated from known concentrations of dapivirine solutions in i-prOH.

Consider `Cc1cc(C)c(Nc2ccnc(Nc3ccc(C#N)cc3)n2)c(C)c1` [dapivirine, 4-[[4-[(2,4,6-trimethylphenyl)amino]pyrimidin-2-yl]amino]benzonitrile], for which the “average flux from rings (SC) higher than from rods (SC)” value in data set [1] (2.5 mg/g SC) is listed as 18%; in data set [1] (20 mg/g SC), 12%. The “release kinetics of SC rings vs MM rings” value in data set [1] (p>0.05, unpaired two tailed t-test) is given as “no significant difference”. Besides, in data set [1] (rings SC and MM, 25:75 i-prOH:water, 37° C.), the “release rate (order)” value is “zero order release rate”. Moreover, the average release rate was 64 ± 1 µg/day in data set [1] (2.5 mg/g dapivirine loading, 25:75 i-prOH:water, 37° C.) and 473 ± 36 µg/day in data set [1] (20 mg/g dapivirine loading, 25:75 i-prOH:water, 37° C.). Besides, the solubility in data set [2] (10 mg/mL liposome dispersion in pH 4.2 acetate buffer, 10 mg/mL pH 4.2 liposome dispersion) came out at 844 µM (≈ 278 µg/mL); in data set [2] (10 mg/mL liposome dispersion in pH 7.6 phosphate buffer, 10 mg/mL pH 7.6 liposome dispersion), 165 µM (≈ 54.4 µg/mL); in data set [2] (25:75 v/v i-prOH:water, 25:75 i-prOH:water), 93 µM (≈ 30.6 µg/mL); in data set [2] (50:50 v/v i-prOH:water, 50:50 i-prOH:water), 3310 µM (≈ 1090 µg/mL). The “Time to reach saturation” value was found to be 48 h in data set [2] (10 mg/mL pH 4.2 liposome dispersion), 48 h in data set [2] (10 mg/mL pH 7.6 liposome dispersion), 48 h in data set [2] (25:75 i-prOH:water) and 24 h in data set [2] (50:50 i-prOH:water). Moreover, in data set [2] (25:75 v/v i-prOH:water solution), the dapivirine solubility came out at 93 μM/L.
